Key:
Test in all cases: combination Emax (second highest fraction inhibited in the dose matrix, 72 h); higher = more inhibition; extreme values may be limits of the assay
MG-63 (Osteosarcoma) = test system: MG-63 (Osteosarcoma)
Method in brief: (§1)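 After 24 hours at 37°C and 5% CO2 in 1536-well plates, cells in DMEM/F12 or RPMI plus 10% FBS received two-drug dose matrices for 72 hours. Viability came from CellTiter-Glo 2.0 luminescence and was scaled as inhibition, anchored at 0 by vehicle wells and at 1 by blank wells. Combination Emax is taken as the second-highest inhibition in the matrix, and Bliss excess as the observed combination effect less EA + EB − EA·EB, with EA and EB the single-agent effects.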

GCIY (Gastric Carcinoma) = test system: GCIY (Gastric Carcinoma)
Method in brief: as §1

[1] = test system: MDA-MB-175-VII (Breast Carcinoma)
Method in brief: as §1

[2] = test system: COR-L105 (Lung Adenocarcinoma)
Method in brief: as §1

[3] = test system: SW1463 (Colorectal Carcinoma)
Method in brief: as §1

[4] = test system: CAL-85-1 (Breast Carcinoma)
Method in brief: as §1

A375 (Melanoma) = test system: A375 (Melanoma)
Method in brief: as §1

[5] = test system: MRK-nu-1 (Breast Carcinoma)
Method in brief: as §1

[6] = test system: SBC-3 (Small Cell Lung Carcinoma)
Method in brief: as §1

[7] = test system: NCI-H2023 (Non-Small Cell Lung Carcinoma)
Method in brief: as §1

[8] = test system: TOV-21G (Ovarian Carcinoma)
Method in brief: as §1

[9] = test system: Daudi (Burkitt's Lymphoma)
Method in brief: as §1

[10] = test system: JURL-MK1 (Chronic Myelogenous Leukemia)
Method in brief: as §1

[11] = test system: HT-3 (Cervical Carcinoma)
Method in brief: as §1

[12] = test system: C2BBe1 (Colorectal Carcinoma)
Method in brief: as §1

[13] = test system: GRANTA-519 (B-Cell Non-Hodgkin's Lymphoma)
Method in brief: as §1

[14] = test system: ATN-1 (T-Lymphoblastic Leukemia)
Method in brief: as §1

SK-N-DZ (Neuroblastoma) = test system: SK-N-DZ (Neuroblastoma)
Method in brief: as §1

[15] = test system: SCC90 (Head and Neck Carcinoma)
Method in brief: as §1

DK-MG (Glioblastoma) = test system: DK-MG (Glioblastoma)
Method in brief: as §1

SMILES	combination Emax (MG-63 (Osteosarcoma))	combination Emax (GCIY (Gastric Carcinoma))	combination Emax [1]	combination Emax [2]	combination Emax [3]	combination Emax [4]	combination Emax (A375 (Melanoma))	combination Emax [5]	combination Emax [6]	combination Emax [7]	combination Emax [8]	combination Emax [9]	combination Emax [10]	combination Emax [11]	combination Emax [12]	combination Emax [13]	combination Emax [14]	combination Emax (SK-N-DZ (Neuroblastoma))	combination Emax [15]	combination Emax (DK-MG (Glioblastoma))
CN(CCO)CC[C@H](CSc1ccccc1)Nc1ccc(S(=O)(=O)NC(=O)c2ccc(N3CCC([C@@H](O)c4ccccc4-c4ccc(Cl)cc4)CC3)cc2)cc1S(=O)(=O)C(F)(F)F [AZD4320] + CC(=O)O[C@H]1C(=O)[C@@]2(C)[C@H]([C@H](OC(=O)c3ccccc3)[C@]3(O)C[C@H](OC(=O)[C@H](O)[C@@H](NC(=O)c4ccccc4)c4ccccc4)C(C)=C1C3(C)C)[C@]1(OC(C)=O)CO[C@@H]1C[C@@H]2O [Paclitaxel] (first compound max 1 µM, 7x7, partner max 3 µM)	1	0.952	0.766	0.695	0.767	0.884	0.992	1	1	0.776	–	–	–	–	–	–	–	–	–	–
CN(CCO)CC[C@H](CSc1ccccc1)Nc1ccc(S(=O)(=O)NC(=O)c2ccc(N3CCC([C@@H](O)c4ccccc4-c4ccc(Cl)cc4)CC3)cc2)cc1S(=O)(=O)C(F)(F)F [AZD4320] + C[C@@H](Nc1cc(F)cc(F)c1)c1cc(C(=O)N(C)C)cc2c(=O)cc(N3CCOCC3)oc12 [AZD8186] (first compound max 1 µM, 7x7, partner max 3 µM)	0.375	0.719	0.453	0.387	0.27	0.668	0.519	0.589	0.979	0.351	0.37	0.771	0.871	0.237	0.461	1	0.807	0.868	0.557	0.557
N#Cc1cnc(Nc2cc(NC[C@H]3CNCCO3)c(C(F)(F)F)cn2)cn1 [SRA737] + CCc1c2c(nc3ccc(O)cc13)-c1cc3c(c(=O)n1C2)COC(=O)[C@]3(O)CC [SN-38] (first compound max 10 µM, 7x7, partner max 0.3 µM)	0.953	0.85	0.63	0.38	0.758	0.746	0.923	0.763	0.935	0.747	–	–	–	–	–	–	–	–	–	–
N#Cc1cnc(Nc2cc(NC[C@H]3CNCCO3)c(C(F)(F)F)cn2)cn1 [SRA737] + Nc1ccn([C@@H]2O[C@H](CO)[C@@H](O)C2(F)F)c(=O)n1 [Gemcitabine] (first compound max 10 µM, 7x7, partner max 0.3 µM)	0.988	0.78	0.519	0.485	0.848	0.743	0.972	0.748	0.97	0.708	–	–	–	–	–	–	–	–	–	–
Cc1cc2ncnn2cc1Nc1ncc2c(n1)n(C1CCOCC1)c(=O)n2C [AZD7648] + COc1cc([C@@H]2c3cc4c(cc3[C@@H](O[C@@H]3O[C@@H]5CO[C@@H](C)O[C@H]5[C@H](O)[C@H]3O)[C@H]3COC(=O)[C@H]23)OCO4)cc(OC)c1O [Etoposide] (first compound max 10 µM, 7x7, partner max 10 µM)	0.874	0.759	0.399	0.338	0.371	0.629	0.901	0.726	0.94	0.621	–	–	–	–	–	–	–	–	–	–
C=CCn1c(=O)c2cnc(Nc3ccc(N4CCN(C)CC4)cc3)nc2n1-c1cccc(C(C)(C)O)n1 [AZD1775] + C1CN(CCC1(C(=O)N[C@@H](CCO)C2=CC=C(C=C2)Cl)N)C3=NC=NC4=C3C=CN4 [Capivasertib] (first compound max 3 µM, partner max 3 µM)	0.668	0.668	0.506	0.584	0.47	0.682	0.813	0.721	0.881	0.652	0.85	–	0.986	0.736	0.533	0.865	0.994	0.921	0.668	0.485
C[C@@H](c1ccc2nccn2c1)n1nnc2ncc(-c3cnn(C)c3)nc21 [Savolitinib] + CN(CC[C@H](CSC1=CC=CC=C1)NC2=C(C=C(C=C2)S(=O)(=O)NC(=O)C3=CC=C(C=C3)N4CCC(CC4)[C@H](C5=CC=CC=C5C6=CC=C(C=C6)Cl)O)S(=O)(=O)C(F)(F)F)CCO [AZD4320] (first compound max 1 µM, 7x7, partner max 1 µM)	–	–	–	–	–	–	0.202	–	–	–	0.227	0.188	0.889	0.15	0.187	0.898	0.679	0.784	0.502	0.37
